Results from patent US9169231B2, “Anti-obesity agent comprising compound containing benzotropolone ring” (SUNTORY HOLDINGS LIMITED, priority 2009, dated 2015).
pIC50: −log10 of the molar value. Where two headings read alike, the source gives them in different places.

Assays:
Type in all cases: biochemical
[1] = biological target: T1, porcine pancreatic lipase (Sus scrofa, UniProt P00591); experiment: Measurement of lipase inhibitory activity (Example 6; 4-MUO substrate, fluorescence)
T1 construct: purchased Sigma-Aldrich Corp
T1 sequence (P00591 1-450): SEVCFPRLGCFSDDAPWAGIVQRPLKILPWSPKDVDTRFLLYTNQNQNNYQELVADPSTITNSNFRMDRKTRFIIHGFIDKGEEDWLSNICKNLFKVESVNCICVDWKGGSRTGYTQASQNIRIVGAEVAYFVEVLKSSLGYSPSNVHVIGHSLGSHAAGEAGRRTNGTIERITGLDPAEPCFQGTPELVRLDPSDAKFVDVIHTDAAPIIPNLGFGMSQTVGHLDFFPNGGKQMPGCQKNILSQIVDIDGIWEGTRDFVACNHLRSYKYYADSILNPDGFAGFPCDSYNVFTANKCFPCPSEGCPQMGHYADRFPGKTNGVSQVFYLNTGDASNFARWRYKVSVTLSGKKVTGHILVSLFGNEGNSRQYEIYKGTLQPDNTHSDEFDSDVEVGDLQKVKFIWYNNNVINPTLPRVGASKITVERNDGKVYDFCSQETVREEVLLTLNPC
Description: The measurement of lipase activity was performed by using as a substrate the oleate ester of fluorescent 4-methylumbelliferone (4-MUO; Sigma-Aldrich Corp.) to measure the fluorescence of 4-methylumbelliferone produced by a reaction. […] The following were subjected to an enzymatic measurement: the substrate 4-MUO which was dissolved into a 0.1M DMSO solution followed by dilution of the solution 4000-fold with the above buffer; and as a lipase, porcine pancreatic lipase (Sigma-Aldrich Corp.) which was prepared as a 400 U/ml solution by using the above buffer likewise.
(§1) An enzymatic reaction was initiated by the following steps under 25° C. condition: adding to a 96-well microplate 50 μl of a 4-MUO buffer solution and 25 μl of distilled water (or an aqueous sample solution) for each well; mixing them; and then adding 25 μl of a lipase buffer solution to each well. After a 30-minute reaction, 100 μl of a 0.1M citric acid buffer (pH4.2) was added to terminate the reaction, and the fluorescence of 4-methylumbelliferone (excitation wavelength: 355 nm, fluorescence wavelength: 460 nm) produced by the reaction was measured with a fluorescence plate reader (Fluoroskan Asent CF from Labsystems, Inc.)

alfa-glucosidase = experiment: Measurement of alfa-glucosidase inhibitory activity (Example 11; p-nitrophenyl-alfa-D-glucopyranoside, A405)
Description: A […] sodium phosphate buffer was prepared by mixing a 0.1M NaH2PO4-2H2O and a 0.1M Na2HPO4.12H2O and adjusting the mixture to pH7.0, and thereto 2 g/L of bovine serum albumin (Nacalai Tesque, Inc., F-V, pH5.2, 96% purity) and 0.2 g/L of NaN3 (Nacalai Tesque, Inc., a special grade reagent) were added. To prepare an enzyme solution, alfa-glucosidase (Wako Pure Chemical Industries, Ltd., yeast-derived, 100 units/mg) was dissolved in the above buffer so as to achieve 0.5 units/mg protein/ml (100 μg/20 ml). To prepare a substrate solution, p-nitrophenyl-alfa-D-glucopyranoside (Nacalai Tesque, Inc., a special grade reagent) was dissolved in the above buffer so as to achieve 5 mM concentration (7.525 mg/5 ml).
Among the samples used for the assays, epigallocatechin-3-O-gallate (Compound 13: EGCG), a positive control, was a product from Wako Pure Chemical Industries, Ltd., and Compounds 1, 3, 4, 5, 11, 12, 14, and 15 were products that were synthesized and purified in Example 1, 2, or 7.
These samples were adjusted so as to obtain 10 mg/ml of DMSO and the solution was diluted 2-fold in 6 steps. Using a 96-well microplate, 45 μL of the enzyme solution was added to 10 μL of the sample solution. After preincubation at 37° C. for 5 minutes, 45 μL of the substrate solution was added and absorbance at 405 nm (A405 nm) was measured. After incubation at 37° C. for 5 minutes, the absorbance A405 nm was measured. Percent inhibition was calculated as a difference in A405 nm from a solution in which only DMSO was added as a control instead of a sample, and two consecutive measurements were performed for activity of each compound.

[2] = biological target: T2, porcine pancreatic lipase (Type VI-S) (Sus scrofa, UniProt P00591); experiment: Measurement of lipase activity (Example 10; 4-MUO substrate 7.5 μM, increased DMSO); conditions: Example 10 method; for pIC50: substrate 7.5 μM, 25° C., 30-minute reaction, read-out: Lipase Inhibitory Activity per Mole IC50
T2 construct: purchased Sigma-Aldrich Corp. Type VI-S
T2 sequence (P00591 1-450): T1 sequence (P00591 1-450)
Description: The measurement of lipase activity was performed by using as a substrate the oleate ester of fluorescent 4-methylumbelliferone (4-MUO; Sigma-Aldrich Corp.) to measure the fluorescence of 4-methylumbelliferone produced by a reaction. In the measurement, 13 mM Tris-HCl (pH8.0) containing 150 mM NaCl and 1.36 mM CaCl2 was used as a buffer. The following were subjected to an enzymatic measurement: the substrate 4-MUO which was dissolved into a 0.01M DMSO solution followed by dilution of the solution 667-fold with the above buffer; and as a lipase, porcine pancreatic lipase (Sigma-Aldrich Corp.: Type VI-S) which was prepared as a 400 U/ml solution by using the above buffer likewise.
as §1, with “μl of 4-MUO buffer” for “μl of a 4-MUO buffer”, “water (or aqueous sample” for “water (or an aqueous sample”, “each well. […] After a” for “each well. After a”, “μl of 0.1M citric” for “μl of a 0.1M citric”, “from Labsystems, Inc.).” for “from Labsystems, Inc.)”
The inhibitory activities of test samples were determined as IC50 (μM), a sample […] which produces 50% inhibition, relative to the activity of a control (distilled water).

[3] = Example 6 method, substrate 12.5 μM, 25° C., 30-minute reaction, read-out: Lipase Inhibitory Activity per mole IC50

Row | Compound | pIC50 [1, 3] | pIC50 (alfa-glucosidase; 37° C., 5 minutes incubation) | pIC50 [2] | also measured
1 | O=C(O[C@@H]1Cc2c(O)cc(O)cc2O[C@@H]1c1cc(O)c(=O)c2c(O)c(O)cc([C@@H]3Oc4cc(O)cc(O)c4C[C@@H]3O)c2c1)c1cc(O)c(=O)c2c(O)c(O)cc([C@H]3Oc4cc(O)cc(O)c4C[C@H]3O)c2c1 (stereo in doubt) [Compound 6, theadibenzotropolone A] | 6.75 | – | – | –
2 | (−)-epigallocatechin-3-O-gallate [Compound 13, reference compound] | 6.46 | 3.31 | 6.46 | –
3 | O=C(O)c1cc(O)c(=O)c2c(O)c(O)cc([C@H]3Oc4cc(O)cc(O)c4C[C@H]3OC(=O)c3cc(O)c(O)c(O)c3)c2c1 [Compound 11, epitheaflavic acid-3-O-gallate] | 6.58 | 3.54 | – | –
4 | epitheaflagallin [Compound 3, reference compound] | – | – | 6.02 | alfa-glucosidase inhibitory activity IC50 (alfa-glucosidase; 37° C., 5 minutes incubation): No
5 | O=C(O[C@@H]1Cc2c(O)cc(O)cc2O[C@@H]1c1ccc(O)c(O)c1)c1cc(O)c(=O)c2c(O)c(O)c(O)cc2c1 [Compound 12, (2R,3R)-2-(3,4-dihydroxyphenyl)-5,7-dihydroxychroman-3-yl2,3,4,6-tetrahydroxy-5-oxo-5H-benzo[7]annulen-8-carboxylate] | 6.68 | 3.80 | 7.02 | alfa-glucosidase inhibitory activity (in words) (alfa-glucosidase): particularly strong activity; Lipase inhibitory activity (in words, compared with EGCG) [2]: stronger activity than a positive control, EGCG
6 | O=C(O[C@@H]1Cc2c(O)cc(O)cc2O[C@@H]1c1cc(O)c(O)c2c(=O)c(O)cccc12)c1cc(O)c(O)c(O)c1 [Compound 14, theaflavanin 3-O-gallate] | – | 3.71 | 6.77 | alfa-glucosidase inhibitory activity (in words) (alfa-glucosidase): particularly strong activity; Lipase inhibitory activity (in words, compared with EGCG) [2]: stronger activity than a positive control, EGCG
7 | O=C(O[C@@H]1Cc2c(O)cc(O)cc2O[C@@H]1c1cc(=O)c(O)c2c(O)c(O)c(O)cc2c1)c1cc(O)c(O)c(O)c1 [Compound 4, epitheaflagallin-3-O-gallate, reference compound] | – | 3.74 | 6.90 | –
8 | O=C(O)c1cc(O)c(=O)c2c(O)c(O)cc([C@H]3Oc4cc(O)cc(O)c4C[C@H]3O)c2c1 [Compound 9, epitheaflavic acid] | 5.33 | – | – | –
9 | O=C(O[C@@H]1Cc2c(O)cc(O)cc2O[C@@H]1c1cc(O)c(=O)c2c(O)c(O)ccc2c1)c1cc(O)c(O)c(O)c1 [Compound 15, EGCG-catechol] | – | 3.99 | 6.98 | Lipase inhibitory activity (in words, compared with EGCG) [2]: stronger activity than a positive control, EGCG
10 | O=C(O[C@@H]1Cc2c(O)cc(O)cc2O[C@@H]1c1cc(O)c(=O)c2c(O)c(O)cc([C@@H]3Oc4cc(O)cc(O)c4C[C@H]3OC(=O)c3cc(O)c(=O)c4c(O)c(O)cc([C@H]5Oc6cc(O)cc(O)c6C[C@H]5OC(=O)c5cc(O)c(O)c(O)c5)c4c3)c2c1)c1cc(O)c(O)c(O)c1 (stereo in doubt) [Compound 8, theaflavin digallate trimer 2 (TFdiGA-tri2)] | 6.86 | – | – | –
11 | O=c1c(O)cccc2cc(O)c(O)c(O)c12 [Compound 1, purprogallin] | 6.38 | 2.91 | – | –
12 | O=C(O[C@@H]1Cc2c(O)cc(O)cc2O[C@@H]1c1ccc(O)c(O)c1)c1cc(O)c(=O)c2c(O)c(O)cc([C@H]3Oc4cc(O)cc(O)c4C[C@H]3OC(=O)c3cc(O)c(O)c(O)c3)c2c1 [Compound 5, theaflavate A] | 6.69 | 3.94 | – | –
13 | Oc1cccc(O)c1O [pyrogallol, reference compound] | 4.76 | – | – | –
14 | O=C(O[C@@H]1Cc2c(O)cc(O)cc2O[C@@H]1c1cc(O)c(=O)c2c(O)c(O)cc([C@@H]3Oc4cc(O)cc(O)c4C[C@H]3OC(=O)c3cc(O)c(O)c(O)c3)c2c1)c1cc(O)c(=O)c2c(O)c(O)cc([C@H]3Oc4cc(O)cc(O)c4C[C@H]3OC(=O)c3cc(O)c(O)c(O)c3)c2c1 (stereo in doubt) [Compound 7, theaflavin digallate trimer 1 (TFdiGA-tri1)] | 6.87 | – | – | –
15 | O=C(O)c1cc(O)c(=O)c2c(O)c(O)c(O)cc2c1 [Compound 2, purprogallin carboxylic acid] | – | – | – | pIC50 [1]: 5.38
16 | O=c1c(O)cccc2c([C@H]3Oc4cc(O)cc(O)c4C[C@H]3O)cc(O)c(O)c12 [Compound 10, theaflavanin] | 6.01 | – | – | –
